Values of other authors in US20230008367A1, “COMPOUNDS USEFUL FOR TREATING LIVER DISEASES” (ABIONYX PHARMA SA, priority 2019, published 2023).

System: adults with NASH and fibrosis
Conditions: Phase 3 trial

CSc1ccc(C(=O)/C=C/c2cc(C)c(OC(C)(C)C(=O)O)c(C)c2)cc1 [elafibranor]
primary endpoint of NASH resolution without worsening of fibrosis: did not demonstrate a statistically significant effect
